Values joined by “and” are separate entries in the source; they are usually repeats but may differ in a detail not shown here. Identical values can stand only once. Inconclusive results and toxic doses are left out. Cut-off read from the data, not from the text of the source: active = T/C of 150% or more; inactive = T/C below 125%.
Test system: L1210 leukemia ip in BDF1 mice, survival T/C
Assay: NCI In Vivo Anticancer Drug Screen. Data for tumor model L1210 Leukemia (intraperitoneal) in B6D2F1 (BDF1) mice
Conditions: higher = longer survival
Method in brief: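 In this screen, tumor-bearing mice given compound are compared to those given vehicle, and their survival values are reported as a treated-to-control quotient.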

[1] = endpoint: mean survival time, dose: 100.0 mg/kg/injection, schedule: Q01DX001 (ip), vehicle: saline with Tween-80
[2] = endpoint: mean survival time, dose: 100.0 mg/kg/injection, schedule: Q01DX009 (ip), vehicle: saline with Tween-80
[3] = endpoint: mean survival time, dose: 100.0 mg/kg/injection, schedule: Q04DX002 (ip), vehicle: saline with Tween-80
[4] = endpoint: mean survival time, dose: 200.0 mg/kg/injection, schedule: Q01DX001 (ip), vehicle: saline with Tween-80
[5] = endpoint: mean survival time, dose: 200.0 mg/kg/injection, schedule: Q01DX009 (ip), vehicle: saline with Tween-80
[6] = endpoint: mean survival time, dose: 200.0 mg/kg/injection, schedule: Q04DX002 (ip), vehicle: saline with Tween-80
[7] = endpoint: mean survival time, dose: 400.0 mg/kg/injection, schedule: Q01DX001 (ip), vehicle: saline with Tween-80
[8] = endpoint: mean survival time, dose: 400.0 mg/kg/injection, schedule: Q04DX002 (ip), vehicle: saline with Tween-80
[9] = endpoint: mean survival time, dose: 50.0 mg/kg/injection, schedule: Q01DX001 (ip), vehicle: carboxymethylcellulose (CMC)
[10] = endpoint: mean survival time, dose: 100.0 mg/kg/injection, schedule: Q01DX001 (ip), vehicle: carboxymethylcellulose (CMC)
[11] = endpoint: mean survival time, dose: 200.0 mg/kg/injection, schedule: Q01DX001 (ip), vehicle: carboxymethylcellulose (CMC)
[12] = endpoint: mean survival time, dose: 400.0 mg/kg/injection, schedule: Q01DX001 (ip), vehicle: carboxymethylcellulose (CMC)
[13] = endpoint: mean survival time, dose: 12.5 mg/kg/injection, schedule: Q01DX001 (ip), vehicle: saline
[14] = endpoint: mean survival time, dose: 25.0 mg/kg/injection, schedule: Q01DX001 (ip), vehicle: saline
[15] = endpoint: mean survival time, dose: 50.0 mg/kg/injection, schedule: Q01DX001 (ip), vehicle: saline
[16] = endpoint: mean survival time, dose: 100.0 mg/kg/injection, schedule: Q01DX009 (ip), vehicle: Klucel (hydroxypropylcellulose) (HPC)
[17] = endpoint: mean survival time, dose: 200.0 mg/kg/injection, schedule: Q01DX009 (ip), vehicle: Klucel (hydroxypropylcellulose) (HPC)
[18] = endpoint: mean survival time, dose: 400.0 mg/kg/injection, schedule: Q01DX009 (ip), vehicle: Klucel (hydroxypropylcellulose) (HPC)
[19] = endpoint: mean survival time, dose: 100.0 mg/kg/injection, schedule: Q01DX001 (ip), vehicle: saline
[20] = endpoint: mean survival time, dose: 200.0 mg/kg/injection, schedule: Q01DX001 (ip), vehicle: saline
[21] = endpoint: mean survival time, dose: 400.0 mg/kg/injection, schedule: Q01DX001 (ip), vehicle: saline

Measured: T/C

O=C(NC(=S)Nc1ccc(Br)cc1)c1ccc(Cl)cc1Cl
inactive: [1] 92 % of control | [2] 97 % of control and 102 % of control | [3] 95 % of control and 90 % of control | endpoint: mean survival time, dose: 100.0 mg/kg/injection, schedule: Q04DX003 (ip), vehicle: saline with Tween-80 95 % of control | [4] 90 % of control | [5] 97 % of control and 88 % of control | [6] 93 % of control and 101 % of control | endpoint: mean survival time, dose: 200.0 mg/kg/injection, schedule: Q04DX003 (ip), vehicle: saline with Tween-80 98 % of control | [7] 97 % of control | endpoint: mean survival time, dose: 400.0 mg/kg/injection, schedule: Q01DX009 (ip), vehicle: saline with Tween-80 97 % of control and 90 % of control | [8] 90 % of control and 92 % of control | endpoint: mean survival time, dose: 400.0 mg/kg/injection, schedule: Q04DX003 (ip), vehicle: saline with Tween-80 93 % of control

Cc1ccccc1C1=CCCCC1
inactive: [9] 87 % of control | [10] 104 % of control | [11] 96 % of control | [12] 97 % of control

CC1CCc2cc3ccccc3nc21 (centres undefined)
inactive: endpoint: mean survival time, dose: 50.0 mg/kg/injection, schedule: Q01DX009 (ip), vehicle: saline with Tween-80 104 % of control | [2] 104 % of control | [5] 112 % of control

COC(=O)/C=C\C(=O)NC(C)(C)CC(C)(C)C
inactive: [9] 100 % of control | [10] 105 % of control | [11] 105 % of control | [12] 96 % of control

CC(=O)OCCc1ccc(C)cc1
inactive: [3] 94 % of control | [6] 97 % of control | [8] 94 % of control

CCCSc1ccc(N2C(N)=NC(N)=NC2(C)C)cc1
inactive: [13] 98 % of control | endpoint: mean survival time, dose: 12.5 mg/kg/injection, schedule: Q04DX003 (ip), vehicle: saline 98 % of control | endpoint: mean survival time, dose: 18.75 mg/kg/injection, schedule: Q01DX009 (ip), vehicle: saline with Tween-80 101 % of control | [14] 108 % of control | endpoint: mean survival time, dose: 25.0 mg/kg/injection, schedule: Q04DX003 (ip), vehicle: saline 93 % of control | endpoint: mean survival time, dose: 37.5 mg/kg/injection, schedule: Q01DX009 (ip), vehicle: saline with Tween-80 96 % of control | [15] 108 % of control | endpoint: mean survival time, dose: 50.0 mg/kg/injection, schedule: Q04DX003 (ip), vehicle: saline 104 % of control | endpoint: mean survival time, dose: 75.0 mg/kg/injection, schedule: Q04DX003 (ip), vehicle: saline 97 % of control

CC(C)CN(C)/N=N/c1nc[nH]c1C(N)=O
inactive: endpoint: mean survival time, dose: 33.0 mg/kg/injection, schedule: Q01DX009 (ip), vehicle: carboxymethylcellulose (CMC) 114 % of control | endpoint: mean survival time, dose: 80.0 mg/kg/injection, schedule: Q01DX015 (ip), vehicle: carboxymethylcellulose (CMC) 109 % of control | [10] 116 % of control | endpoint: mean survival time, dose: 120.0 mg/kg/injection, schedule: Q01DX009 (ip), vehicle: carboxymethylcellulose (CMC) 86 % of control | endpoint: mean survival time, dose: 134.0 mg/kg/injection, schedule: Q01DX001 (ip), vehicle: carboxymethylcellulose (CMC) 106 % of control | endpoint: mean survival time, dose: 134.0 mg/kg/injection, schedule: Q01DX015 (ip), vehicle: carboxymethylcellulose (CMC) 109 % of control | endpoint: mean survival time, dose: 178.0 mg/kg/injection, schedule: Q01DX001 (ip), vehicle: carboxymethylcellulose (CMC) 106 % of control | [11] 122 % of control | endpoint: mean survival time, dose: 267.0 mg/kg/injection, schedule: Q01DX001 (ip), vehicle: carboxymethylcellulose (CMC) 110 % of control | endpoint: median survival time, dose: 12.5 mg/kg/injection, schedule: Q01DX009 (ip), vehicle: steriod suspending solution 122 % of control | endpoint: median survival time, dose: 25.0 mg/kg/injection, schedule: Q01DX009 (ip), vehicle: steriod suspending solution 111 % of control
active: endpoint: mean survival time, dose: 37.0 mg/kg/injection, schedule: Q01DX Z (ip), vehicle: carboxymethylcellulose (CMC) 170 % of control | endpoint: mean survival time, dose: 50.0 mg/kg/injection, schedule: Q01DX Z (ip), vehicle: carboxymethylcellulose (CMC) 156 % of control | endpoint: mean survival time, dose: 75.0 mg/kg/injection, schedule: Q01DX Z (ip), vehicle: carboxymethylcellulose (CMC) 167 % of control | [12] 151 % of control | endpoint: median survival time, dose: 50.0 mg/kg/injection, schedule: Q01DX011 (ip), vehicle: steriod suspending solution 175 % of control | endpoint: median survival time, dose: 100.0 mg/kg/injection, schedule: Q01DX009 (ip), vehicle: steriod suspending solution 155 % of control | endpoint: median survival time, dose: 100.0 mg/kg/injection, schedule: Q01DX011 (ip), vehicle: steriod suspending solution 168 % of control

O=C1c2cccc(Cl)c2C(=O)c2c(NCCO)cccc21
inactive: endpoint: mean survival time, dose: 100.0 mg/kg/injection, schedule: Q01DX001 (ip), vehicle: Klucel (hydroxypropylcellulose) (HPC) 96 % of control | endpoint: mean survival time, dose: 200.0 mg/kg/injection, schedule: Q01DX001 (ip), vehicle: Klucel (hydroxypropylcellulose) (HPC) 101 % of control | endpoint: mean survival time, dose: 400.0 mg/kg/injection, schedule: Q01DX001 (ip), vehicle: Klucel (hydroxypropylcellulose) (HPC) 97 % of control

CCOP(=S)(N1CC1(C)C)N1CC1(C)C (centres undefined)
active: endpoint: mean survival time, dose: 100.0 mg/kg/injection, schedule: Q01DX015 (ip), vehicle: carboxymethylcellulose (CMC) 152 % of control | endpoint: mean survival time, dose: 200.0 mg/kg/injection, schedule: Q01DX015 (ip), vehicle: carboxymethylcellulose (CMC) 164 % of control
inactive: endpoint: mean survival time, dose: 12.5 mg/kg/injection, schedule: Q01DX015 (ip), vehicle: carboxymethylcellulose (CMC) 105 % of control | endpoint: mean survival time, dose: 25.0 mg/kg/injection, schedule: Q01DX015 (ip), vehicle: carboxymethylcellulose (CMC) 105 % of control | endpoint: mean survival time, dose: 50.0 mg/kg/injection, schedule: Q01DX015 (ip), vehicle: carboxymethylcellulose (CMC) 111 % of control

O=C1c2nc3ccccc3nc2C(=O)N1OS(=O)(=O)c1ccccc1
inactive: [16] 92 % of control | [17] 105 % of control | [18] 100 % of control

NNc1ncccc1[N+](=O)[O-]
inactive: [15] 102 % of control | [19] 108 % of control | [20] 96 % of control

CCSC1(SCC)C2(CCCCC2)C(=O)C12CCCCC2
inactive: endpoint: mean survival time, dose: 100.0 mg/kg/injection, schedule: Q04DX002 (ip), vehicle: Klucel (hydroxypropylcellulose) (HPC) 93 % of control | endpoint: mean survival time, dose: 200.0 mg/kg/injection, schedule: Q04DX002 (ip), vehicle: Klucel (hydroxypropylcellulose) (HPC) 96 % of control | endpoint: mean survival time, dose: 400.0 mg/kg/injection, schedule: Q04DX002 (ip), vehicle: Klucel (hydroxypropylcellulose) (HPC) 96 % of control

CCCCOC(=O)CCCCC(=O)OCCCC
inactive: [16] 104 % of control | [17] 100 % of control | [18] 95 % of control

Cc1cc(N)nc(=O)n1C1OC(CO)C(O)C1O (centres undefined)
inactive: [19] 96 % of control | [20] 102 % of control | [21] 101 % of control

CCCCOC(=O)/C(=C\c1cccc(OC)c1)NC(=O)c1ccccc1
inactive: endpoint: mean survival time, dose: 50.0 mg/kg/injection, schedule: Q01DX009 (ip), vehicle: other 92 % of control | endpoint: mean survival time, dose: 100.0 mg/kg/injection, schedule: Q01DX009 (ip), vehicle: other 89 % of control | endpoint: mean survival time, dose: 200.0 mg/kg/injection, schedule: Q01DX009 (ip), vehicle: other 100 % of control and 91 % of control | endpoint: mean survival time, dose: 400.0 mg/kg/injection, schedule: Q01DX009 (ip), vehicle: other 88 % of control

CCNC(=O)N(CC)N=O
inactive: endpoint: mean survival time, dose: 6.25 mg/kg/injection, schedule: Q01DX001 (ip), vehicle: saline 97 % of control | [13] 102 % of control | [14] 100 % of control | [15] 97 % of control | [19] 110 % of control | [20] 113 % of control | endpoint: mean survival time, dose: 300.0 mg/kg/injection, schedule: Q01DX001 (ip), vehicle: saline 124 % of control | endpoint: mean survival time, dose: 500.0 mg/kg/injection, schedule: Q01DX001 (ip), vehicle: saline 112 % of control

CC1CCOC(=O)CCCCC1=O (centres undefined)
inactive: [19] 101 % of control | [20] 90 % of control | [21] 109 % of control

Cc1ccccc1OC(=O)Nc1ccc(C(=O)O)c(O)c1
inactive: [1] 93 % of control | [2] 94 % of control | [4] 96 % of control | [5] 97 % of control | [7] 93 % of control

C[N+]1(C)C2CCCCC1CC(=O)C2
inactive: endpoint: mean survival time, dose: 10.0 mg/kg/injection, schedule: Q01DX001 (ip), vehicle: saline 96 % of control | endpoint: mean survival time, dose: 20.0 mg/kg/injection, schedule: Q01DX001 (ip), vehicle: saline 98 % of control | endpoint: mean survival time, dose: 40.0 mg/kg/injection, schedule: Q01DX001 (ip), vehicle: saline 95 % of control
